The EC50 is the concentration needed to bring the measured effect to its halfway point. The low end stands for an effect from little substance, the high end for a need for much substance. By Emax is commonly meant the maximal effect, on the per cent scale that the assay sets.

Common to all, as to assay type: cell-based
Assay [1] deals with T1, CXCR4 (Homo sapiens, UniProt P61073). Nature of the assay: primary 1536 w β-arrestin recruitment assay (FRET, β-lactamase reporter) in U2OS cells overexpressing CXCR4. Further details: host or cells: U2OS. The procedure: In an effort to identify CXCR4 activators from the NIH Molecular Library Small Molecule Repository (MLSMR), a primary screening assay was developed to measure β-arrestin recruitment to the activated G-protein coupled receptor by Florescence Resonance Energy Transfer (FRET) in U2OS cells overexpressing the CXCR4 receptor engineered with a β-lactamase (bla) reporter system (Invitrogen cat #K1779). CXCR4-bla cells plated in 1536 w were stimulated in the presence of 10 uM compound concentration. […] Using this approach, 370,620 compounds from the NIH MLSMR were successfully screened and 303 hits were identified (hit rate=0.08%; Z′=0.83). […] These compounds were graded according to activity and structure resulting in 86 compounds that met criteria as potential CXCR4 agonists for further characterization.
Chemical stability, synthetic tractability, solubility and complete dose response and potency criteria led to the prioritization of the 5-aryl-2-cyclopropyl oxazole scaffold, represented by primary hit Compound 2 (Table 1). Early structure-activity relationship was established around the 5-aryl-2-cyclopropyl oxazole core with commercially available analogs with diverse substituents in the sulfonanilide ring of the scaffold. […] Keeping the 2-OMe substituent constant a small set of electron withdrawing and electron rich substituents at the 5-position of the anilide ring were screened (entries 16-19).
A general note: Recruitment of arrestin is a read-out of receptor activation apart from second messengers.

For assay [2], the target named is T1, CXCR4. Description: cAMP signaling assay, oxazole scaffold (forskolin-induced adenylate cyclase, CHO-K1 CXCR4 cells). More on the design: host or cells: CHO-K1. The following applies: listed as UCUF-728. As for the experimental part:
The CXCR4 receptor is a G-protein coupled receptor (GPCR) coupled to the Gi class, whose primary role is inhibition of adenylate cyclase. The ability of UCUF-728 to induce Gi-mediated cAMP-inhibitory cellular response was tested.
Forskolin at final concentration of […] was added to all wells using the TECAN dispenser. […] PathHunter CHO-K1 CXCR4 cells (DiscoverX, Fremont, CA) were added to compounds at 3,000 cells/well, centrifuged at 1000 rpm for 30 sec and incubated for 30 min at room temperature. DMSO (Sigma Aldrich, St. Louis, MO) was normalization to 0.5%. 5 μL of 4× Eu-cAMP tracer working solution was added to all wells followed by addition of 5 μL of 4× Ulight-anti-cAMP working solution to all wells. Plates were centrifuged at 1000 rpm for 1 min and incubated for 1 hr at room temperature then read using CLARIOstar Plus (BMG LABTECH Inc., Cary, NC) Lance CAMP protocol.

The target in assay [3] is T1, CXCR4. Description: Adenylate cyclase (cAMP inhibition) assay, thiadiazine scaffold, CHO-CXCR4-cAMP cells. Further details: host or cells: CHO-K1. The procedure: Tango™ CXCR4-bla U2OS Cells (Invitrogen; K1779) were used for (β-arrestin recruitment assays and maintained as a monolayer culture in McCoy's 5a (Corning; 10-050-CV) supplemented with 10% dialyzed Fetal Bovine Serum (Gibco; 26400-044), 0.1 mM MEM Non-essential amino acids solution, 25 mM HEPES solution (Corning; 25-060-CI), 1 mM Sodium Pyruvate (Gibco; 11360-070), 200 μg/mL Zeocin selection reagent (Gibco; R25001), 50 μg/mL Hygromycin B (Gibco, 10687010), and 100 μg/mL Geneticin (G418 Sulfate) (Gibco, 10131035). U2OS cells were subcultured twice weekly by 0.05% Trypsin-EDTA treatment (Corning; 25-051-CI) and passaged to continue exponential growth phase for cell signaling assays. All cell cultures were maintained in cell culture incubators at 37° C. with 5% CO2. CHO-K1 CXCR4 cells (DiscoverX, Fremont, CA, USA) were used for cAMP inhibition assays and maintained as a monolayer culture in DMEM/F12 (Corning; 10-091-CV) supplemented with 10% Fetal Bovine Serum (Corning; 35-011-CV) and 100IU penicillin, […] streptomycin sulfate (Corning; 30-002-CI) and […] G418 (Gibco; 101310350. Cells were subculture 2 times weekly by o.o5% Trypsin-EDTA treatment (Corning; 25-051-CI) and passaged to continue exponential growth phase for cell signaling assays. All cell cultures were maintained in cell culture incubators at 37° C. with 5% CO2.CEM-CCRF cells (ATCC CCL-119) were used in both the migration and calcium flux assays and were cultured in growth media consisting of RPMI 1640 (Corning; 10-040-CV) supplemented with 10% Fetal Bovine Serum (Corning; 35-011-CV), and 100 IU penicillin, […] streptomycin sulfate (Corning; 30-002-CI). […] Cells were harvested for use in migration and calcium flux assays at 2.0×10^6 cells/mL to 2.5×10^6 cells/mL and resuspended in assay media to desired density for respective experiments.
Compounds and DMSO normalization to 0.5% were dispensed using the TECAN D300e digital dispenser into the wells of a 384-well white wall clear-bottom assay plate (Griener 781983). […] This cell suspension was dispensed at 20 μL per well into the assay plate and allowed to incubate overnight for approximately 18 hrs with compounds in cell culture incubator at 37° C. with 5% CO2. Following incubation, DMEM/F12 media was gently removed, then the Lance Ultra cAMP Kit (Perkin Elmer; TRF0263) was performed according to the supplier guidelines. […] Time-resolved fluorescence was measured on the BMG LABTECH CLARIOstar Plus (BMG LABTECH Inc., Cary, NC) using the Lance Ultra cAMP kit guidelines for excitation and emission. […]

Entries after “also recorded” stand apart in the source; their conditions may differ. Like-named read-outs stand apart in the source and are kept apart here.

T1 sequence (P61073 whole entry): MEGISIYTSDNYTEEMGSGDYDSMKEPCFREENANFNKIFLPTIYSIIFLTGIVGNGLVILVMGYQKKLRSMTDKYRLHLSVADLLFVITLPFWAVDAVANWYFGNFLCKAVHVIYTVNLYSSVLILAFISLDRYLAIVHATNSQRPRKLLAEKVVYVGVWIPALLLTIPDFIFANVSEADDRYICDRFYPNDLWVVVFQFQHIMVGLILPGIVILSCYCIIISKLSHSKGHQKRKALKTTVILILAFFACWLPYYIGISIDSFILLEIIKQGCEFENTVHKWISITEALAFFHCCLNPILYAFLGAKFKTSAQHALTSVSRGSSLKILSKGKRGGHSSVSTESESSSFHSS

On CXCR4 [1] (1536 w screening platform), `COc1ccc(OC)c(NS(=O)(=O)c2ccc(-c3cnc(C4CC4)o3)cc2)c1` [Oxazole Entry 19, 4-(2-Cyclopropyloxazol-5-yl)-N-(2,5-dimethoxyphenyl)benzenesulfonamide] displayed an EC50 of 1100 nM. Besides, the “CXCR4 b-arrestin Emax (%)” value at CXCR4 [1] (1536 w, normalized to SDF-1α) came to 60%. Further, on CXCR4 [2], the “cAMP signaling / forskolin-induced adenylate cyclase” value was “did not inhibit forskolin-induced adenylate cyclase; also recorded: does not show dose-dependent activity”.

As to `CCOc1ccccc1-c1nnc2n1N=C(c1ccc(N3CCCC3)cc1)CS2` [Thiadiazine Entry 23, 3-(2-ethoxyphenyl)-6-(4-(pyrrolidin-1-yl)phenyl)-7H-[1,2,4]triazolo[3,4-b][1,3,4]thiadiazine], the “cAMP inhibition activity” value on CXCR4 [3] (listed as UCUF-965) was “dose-dependent partial agonist response; also recorded: dose-dependent partial inhibition of forskolin-stimulated cAMP production; also recorded: did not inhibit the action of SDF-1α; also recorded: doubling the Emax”. At CXCR4 [3] (log value, n=3), the “cAMP log EC50” value is on record as −7.3±0.2 M. The Emax turned out to be 110% at CXCR4 [3] (read-out: cAMP maximal response (Emax) of SDF-1α potentiated by, pretreatment with 0.1 μM UCUF-965); 201% on CXCR4 [3] (read-out: cAMP maximal response (Emax) of SDF-1α potentiated by, pretreatment with 1 μM UCUF-965); 209% on CXCR4 [3] (read-out: cAMP maximal response (Emax) of SDF-1α potentiated by, pretreatment with 5 μM UCUF-965).
